Assay results from ChEMBL document CHEMBL5303573, “Mapping human microbiome drug metabolism by gut bacteria and their genes” (Nature, 2019).

What was measured:
[1] = The drug is tested on Bifidobacterium ruminantium strain: fecal isolate for biotransformation. The drug concentrations were measured before and after a 12-h incubation by liquid-chromatography-coupled mass spectrometry (LC–MS); settings: 2 µM
[2] = The drug is tested on Alistipes indistinctus strain: DSM22520 for biotransformation. The drug concentrations were measured before and after a 12-h incubation by liquid-chromatography-coupled mass spectrometry (LC–MS); settings: 2 µM
[3] = The drug is tested on Bacteroides pectinophilus strain: ATCC43243 for biotransformation. The drug concentrations were measured before and after a 12-h incubation by liquid-chromatography-coupled mass spectrometry (LC–MS); settings: 2 µM
[4] = The drug is tested on Clostridium asparagiforme strain: DSM15981 for biotransformation. The drug concentrations were measured before and after a 12-h incubation by liquid-chromatography-coupled mass spectrometry (LC–MS); type: ADME; set-up: dose 2 uM, timepoint 0 vs 12 hours; settings: enterocloster asparagiformis, 2 µM
[5] = The drug is tested on Clostridium symbiosum strain: ATCC14940 for biotransformation. The drug concentrations were measured before and after a 12-h incubation by liquid-chromatography-coupled mass spectrometry (LC–MS); settings: 2 µM
[6] = The drug is tested on Ruminococcus lactaris strain: ATCC29176 for biotransformation. The drug concentrations were measured before and after a 12-h incubation by liquid-chromatography-coupled mass spectrometry (LC–MS); settings: 2 µM
[7] = bacteroides eggerthii, 12 h, 2 µM
Description: The drug is tested on Bacteroides eggerthii strain: DSM20697 for biotransformation. The drug concentrations were measured before and after a 12-h incubation by liquid-chromatography-coupled mass spectrometry (LC–MS)

[8] = bacteroides fragilis, 12 h, 2 µM
Description: The drug is tested on Bacteroides fragilis strain: 3397 (T10) for biotransformation. The drug concentrations were measured before and after a 12-h incubation by liquid-chromatography-coupled mass spectrometry (LC–MS)

[9] = bacteroides fragilis, 12 h, 2 µM; remark: listed apart in the source
Description: The drug is tested on Bacteroides fragilis strain: DS-208 for biotransformation. The drug concentrations were measured before and after a 12-h incubation by liquid-chromatography-coupled mass spectrometry (LC–MS)

[10] = bacteroides intestinalis, 12 h, 2 µM
Description: The drug is tested on Bacteroides intestinalis strain: DSM17393 for biotransformation. The drug concentrations were measured before and after a 12-h incubation by liquid-chromatography-coupled mass spectrometry (LC–MS)

[11] = bacteroides thetaiotaomicron, 12 h, 2 µM
Description: The drug is tested on Bacteroides thetaiotaomicron strain: VPI-5482 for biotransformation. The drug concentrations were measured before and after a 12-h incubation by liquid-chromatography-coupled mass spectrometry (LC–MS)

[12] = bacteroides thetaiotaomicron, 12 h, 2 µM; remark: listed apart in the source
Description: The drug is tested on Bacteroides thetaiotaomicron strain: 7330 for biotransformation. The drug concentrations were measured before and after a 12-h incubation by liquid-chromatography-coupled mass spectrometry (LC–MS)

[13] = segatella copri, 12 h, 2 µM
Description: The drug is tested on Prevotella copri strain: DSM18205 for biotransformation. The drug concentrations were measured before and after a 12-h incubation by liquid-chromatography-coupled mass spectrometry (LC–MS)

[14] = anaerostipes sp., 12 h, 2 µM
Description: The drug is tested on Anaerostipes sp. strain: fecal isolate for biotransformation. The drug concentrations were measured before and after a 12-h incubation by liquid-chromatography-coupled mass spectrometry (LC–MS)

[15] = roseburia intestinalis, 12 h, 2 µM
Description: The drug is tested on Roseburia intestinalis strain: L1-82 for biotransformation. The drug concentrations were measured before and after a 12-h incubation by liquid-chromatography-coupled mass spectrometry (LC–MS)

[16] = akkermansia muciniphila, 12 h, 2 µM
Description: The drug is tested on Akkermansia muciniphila strain: ATCC BAA-835 for biotransformation. The drug concentrations were measured before and after a 12-h incubation by liquid-chromatography-coupled mass spectrometry (LC–MS)

[17] = The drug is tested on Bacteroides uniformis strain: ATCC8492 for biotransformation. The drug concentrations were measured before and after a 12-h incubation by liquid-chromatography-coupled mass spectrometry (LC–MS); settings: 2 µM
[18] = The drug is tested on Bacteroides dorei strain: DSM17855 for biotransformation. The drug concentrations were measured before and after a 12-h incubation by liquid-chromatography-coupled mass spectrometry (LC–MS); settings: phocaeicola dorei, 2 µM
[19] = The drug is tested on Bacteroides vulgatus strain: ATCC8482 for biotransformation. The drug concentrations were measured before and after a 12-h incubation by liquid-chromatography-coupled mass spectrometry (LC–MS); settings: phocaeicola vulgatus, 2 µM

| Compound | Bacterial Biotransformation [1] | Bacterial Biotransformation [2] | Bacterial Biotransformation [3] | Bacterial Biotransformation [4] | Bacterial Biotransformation [5] | Bacterial Biotransformation [6] | Bacterial Biotransformation [7] | Bacterial Biotransformation [8] | Bacterial Biotransformation [9] | Bacterial Biotransformation [10] | Bacterial Biotransformation [12] | Bacterial Biotransformation [13] | Bacterial Biotransformation [14] | Bacterial Biotransformation [15] | Bacterial Biotransformation [16] | Bacterial Biotransformation [17] | Bacterial Biotransformation [18] | Bacterial Biotransformation [19] | Bacterial Biotransformation [11] |
| --- | --- | --- | --- | --- | --- | --- | --- | --- | --- | --- | --- | --- | --- | --- | --- | --- | --- | --- | --- |
| CN1CCC(=C2c3ccccc3CCc3cccnc32)CC1.O=C(O)/C=C\C(=O)O.O=C(O)/C=C\C(=O)O [AZATADINE MALEATE] | Compound NOT metabolized | Compound NOT metabolized | Compound NOT metabolized | Compound NOT metabolized | Compound NOT metabolized | Compound NOT metabolized | Compound NOT metabolized | Compound NOT metabolized | Compound NOT metabolized | Compound NOT metabolized | Compound NOT metabolized | Compound NOT metabolized | Compound NOT metabolized | Compound NOT metabolized | Compound NOT metabolized | – | – | – | Compound NOT metabolized |
| CCCC1O[C@@H]2C[C@H]3[C@@H]4CCC5=CC(=O)C=C[C@]5(C)[C@H]4[C@@H](O)C[C@]3(C)[C@]2(C(=O)CO)O1 (some centres undefined) [BUDESONIDE] | Compound NOT metabolized | Compound NOT metabolized | Compound NOT metabolized | Compound metabolized | Compound NOT metabolized | Compound NOT metabolized | Compound metabolized | Compound metabolized | – | Compound NOT metabolized | Compound NOT metabolized | Compound NOT metabolized | Compound NOT metabolized | – | Compound NOT metabolized | – | Compound metabolized | Compound metabolized | Compound metabolized |
| COc1cc2c(c(OC)c1OC)-c1ccc(OC)c(=O)cc1[C@@H](NC(C)=O)CC2 [COLCHICINE] | Compound NOT metabolized | Compound NOT metabolized | – | Compound NOT metabolized | Compound metabolized | Compound NOT metabolized | Compound metabolized | Compound metabolized | Compound metabolized | Compound metabolized | Compound metabolized | Compound metabolized | Compound metabolized | Compound metabolized | Compound NOT metabolized | Compound metabolized | Compound metabolized | Compound metabolized | Compound metabolized |
| CC(=O)O[C@]1(C(C)=O)CC[C@H]2[C@@H]3C=C(Cl)C4=CC(=O)[C@@H]5C[C@@H]5[C@]4(C)[C@H]3CC[C@@]21C [CYPROTERONE ACETATE] | Compound NOT metabolized | Compound NOT metabolized | Compound metabolized | Compound NOT metabolized | Compound NOT metabolized | Compound NOT metabolized | Compound metabolized | – | Compound metabolized | Compound metabolized | Compound metabolized | Compound NOT metabolized | Compound NOT metabolized | Compound NOT metabolized | Compound NOT metabolized | Compound metabolized | Compound metabolized | Compound metabolized | – |

The next lines start with results.

| Bacterial Biotransformation [1] | Bacterial Biotransformation [2] | Bacterial Biotransformation [3] | Bacterial Biotransformation [4] | Bacterial Biotransformation [5] | Bacterial Biotransformation [6] | Bacterial Biotransformation [7] | Bacterial Biotransformation [8] | Bacterial Biotransformation [9] | Bacterial Biotransformation [10] | Bacterial Biotransformation [12] | Bacterial Biotransformation [13] | Bacterial Biotransformation [14] | Bacterial Biotransformation [15] | Bacterial Biotransformation [16] | Bacterial Biotransformation [17] | Bacterial Biotransformation [18] | Bacterial Biotransformation [19] | Compound | Bacterial Biotransformation [11] |
| --- | --- | --- | --- | --- | --- | --- | --- | --- | --- | --- | --- | --- | --- | --- | --- | --- | --- | --- | --- |
| Compound NOT metabolized | Compound NOT metabolized | Compound NOT metabolized | Compound NOT metabolized | Compound NOT metabolized | – | Compound NOT metabolized | Compound NOT metabolized | Compound NOT metabolized | Compound NOT metabolized | Compound NOT metabolized | Compound NOT metabolized | Compound NOT metabolized | Compound NOT metabolized | Compound NOT metabolized | Compound NOT metabolized | – | – | NS(=O)(=O)c1cc2c(cc1Cl)N=C(CSCc1ccccc1)NS2(=O)=O [BENZTHIAZIDE] | Compound NOT metabolized |
| Compound metabolized | Compound NOT metabolized | – | Compound NOT metabolized | Compound NOT metabolized | Compound NOT metabolized | Compound metabolized | Compound metabolized | Compound metabolized | Compound NOT metabolized | – | Compound metabolized | Compound NOT metabolized | Compound NOT metabolized | Compound NOT metabolized | Compound metabolized | Compound metabolized | Compound metabolized | CCOC(=O)[C@H](CCc1ccccc1)N[C@@H](C)C(=O)N1[C@H](C(=O)O)C[C@H]2CCCC[C@@H]21 [TRANDOLAPRIL] | – |
